{"source": "ChEMBL document CHEMBL5352423", "about": "“Discovery of potent human dihydroorotate dehydrogenase inhibitors based on a benzophenone scaffold” (Eur J Med Chem, 2022)", "key": {"[1]": {"test": "Toxicity in NOD-SCID mouse xenografted with human Raji cells assessed as change in body weight at 1.5 mg/kg, po administered for 24 days", "type": "organism-based", "conditions": "in vivo, 576 h, time 24 day"}, "[2]": {"test": "Toxicity in NOD-SCID mouse xenografted with human Raji cells assessed as death at 1.5 mg/kg, po administered for 24 days", "type": "organism-based", "conditions": "in vivo, 576 h, time 24 day"}, "[3]": {"test_system": "HCT-116", "test": "Antitumor activity against human HCT-116 cells xenografted in NOD-SCID mouse assessed as tumor growth inhibition at 1.5 mg/kg, po administered for 24 days relative to control", "type": "functional", "conditions": "HCT-116, 576 h, time 24 day, read-out: TGI"}, "[4]": {"test": "Toxicity in NOD-SCID mouse xenografted with human HCT-116 cells assessed as change in body weight at 1.5 mg/kg, po administered for 24 days", "type": "organism-based", "conditions": "in vivo, 576 h, time 24 day"}, "[5]": {"test_system": "Mus musculus", "test": "Immunosuppressive activity in NOD-SCID mouse xenografted with human HCT-116 cells at 1.5 mg/kg, po for 21 days", "type": "functional, organism-based", "conditions": "time 21.0 day"}, "[6]": {"test": "Toxicity in NOD-SCID mouse xenografted with human HCT-116 cells assessed as splenomegaly at 1.5 mg/kg, po administered for 21 days", "type": "organism-based", "conditions": "in vivo, 504 h, time 21 day"}, "[7]": {"test_system": "Raji", "test": "animal or person", "conditions": "Mus musculus, po, 576 h, read-out: TGI", "description": "Antitumor activity against human Raji cells xenografted in NOD-SCID mouse assessed as tumor growth inhibition at 1.5 mg/kg, po administered for 24 days relative to control"}}, "note": "Calls of active or inactive are those of the source. The rule behind the calls is not given here."}
{"smiles": "CCn1c(CO)nn(-c2cc(O[C@@H](C)C(F)(F)F)c(C(=O)Nc3c(F)cccc3Cl)cc2F)c1=O", "values": [{"measurement": "Activity", "setting": "[1]", "value": "Non-Toxic"}, {"measurement": "Activity", "setting": "[2]", "value": "Non-Toxic"}, {"measurement": "inhibition in vivo at 1.5 mg/kg", "setting": "[3]", "value": 44.4, "unit": "%"}, {"measurement": "Activity", "setting": "[4]", "value": "Toxic"}, {"measurement": "Activity", "setting": "[5]", "value": "Active"}, {"measurement": "Activity", "setting": "[6]", "value": "Toxic"}, {"measurement": "inhibition in vivo at 1.5 mg/kg", "setting": "[7]", "value": 71.4, "unit": "%"}]}
